Data as given in publication PMC4294347, “Therapeutic potential of ERK5 targeting in triple negative breast cancer” (Oncotarget, 2014).

Biological target: T1, ERK5 (Homo sapiens, UniProt Q13164)
T1 construct: gene MAPK7; endogenous ERK5 immunoprecipitated from EGF-treated MDA-MB231 cells
Assay: in vitro autophosphorylation kinase assay on immunoprecipitated active ERK5, Western blot mobility-shift readout
Format: biochemical

T1 sequence (Q13164 2-816): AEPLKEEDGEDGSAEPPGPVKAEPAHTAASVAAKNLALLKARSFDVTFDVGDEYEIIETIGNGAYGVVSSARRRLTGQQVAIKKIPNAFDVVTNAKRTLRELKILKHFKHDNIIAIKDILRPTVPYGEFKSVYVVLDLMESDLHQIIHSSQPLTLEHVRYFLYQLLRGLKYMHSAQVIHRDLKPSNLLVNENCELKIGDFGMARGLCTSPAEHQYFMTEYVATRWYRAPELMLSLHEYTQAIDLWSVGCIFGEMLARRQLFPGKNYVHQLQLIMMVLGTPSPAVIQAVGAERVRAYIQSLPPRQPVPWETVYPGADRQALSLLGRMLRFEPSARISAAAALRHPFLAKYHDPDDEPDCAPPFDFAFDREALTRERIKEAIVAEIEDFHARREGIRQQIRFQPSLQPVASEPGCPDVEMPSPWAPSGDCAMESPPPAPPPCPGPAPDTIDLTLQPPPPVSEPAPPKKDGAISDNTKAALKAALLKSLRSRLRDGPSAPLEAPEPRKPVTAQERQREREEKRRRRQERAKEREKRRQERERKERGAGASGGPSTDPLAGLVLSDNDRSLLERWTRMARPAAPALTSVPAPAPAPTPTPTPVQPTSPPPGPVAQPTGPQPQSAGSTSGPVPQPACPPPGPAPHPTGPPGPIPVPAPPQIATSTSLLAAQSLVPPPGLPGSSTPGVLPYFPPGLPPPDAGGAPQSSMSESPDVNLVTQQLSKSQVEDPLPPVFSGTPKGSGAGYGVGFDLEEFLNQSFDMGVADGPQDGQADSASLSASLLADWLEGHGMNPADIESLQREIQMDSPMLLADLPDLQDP

IC50: 100 nM
SMILES: CN1C/C=C/CCOc2cccc(c2)-c2ccnc(n2)Nc2cccc(c2)C1 [TG02]
